test system: RAW264.7; test: Antiinflammatory activity in mouse RAW264.7 cells assessed as inhibition of LPS-stimulated nitric oxide production; assay type: functional, cell-based

| IC50 [µM] | Structure (SMILES) |
| --- | --- |
| > 50 | CC(=O)O[C@H]1C[C@H]2C[C@@]3(C[C@H](O)[C@@H]4C(C)(C)[C@@H](OC(C)=O)C[C@H](O)[C@@]4(C)[C@H]13)C(=O)[C@]2(O)CC[C@@]1(O)C(=O)[C@]23C[C@@H]1C[C@H](O)[C@H]2[C@]1(C)[C@@H](OC(C)=O)C[C@H](OC(C)=O)C(C)(C)[C@H]1[C@@H](O)C3 (relative stereo) |
| > 50 | CC(=O)O[C@H]1C[C@H]2C[C@@]3(C[C@H](O)[C@@H]4C(C)(C)[C@@H](OC(C)=O)C[C@H](O)[C@@]4(C)[C@H]13)C(=O)[C@]21CCC2=C(O1)[C@]13C[C@@H]2C[C@H](OC(C)=O)[C@H]1[C@@]1(C)[C@H]([C@@H](O)C3)C(C)(C)[C@@H](OC(C)=O)C[C@@H]1O (relative stereo) |
| > 50 | CC(=O)O[C@H]1C[C@H]2C[C@@]3(C[C@H](O)[C@@H]4C(C)(C)[C@@H](OC(C)=O)C[C@H](O)[C@@]4(C)[C@H]13)C(=O)O[C@]1(CCC2=O)C(=O)[C@]23C[C@@H]1C[C@H](OC(C)=O)[C@H]2[C@@]1(C)[C@H]([C@@H](O)C3)C(C)(C)[C@@H](OC(C)=O)C[C@@H]1O (relative stereo) |
| > 50 | CC(=O)O[C@H]1C[C@H]2C[C@@]3(CC(=O)[C@@H]4C(C)(C)[C@@H](OC(C)=O)C[C@H](O)[C@@]4(C)[C@H]13)C(=O)[C@]21CCC(=O)[C@H]2C[C@H](OC(C)=O)[C@@H]3[C@](C2)(C[C@H](O)[C@@H]2C(C)(C)[C@@H](OC(C)=O)C[C@H](O)[C@]23C)C(=O)O1 (relative stereo) |
| > 50 | CC(=O)O[C@H]1C[C@H]2C[C@@]3(CC(=O)[C@@H]4C(C)(C)[C@@H](OC(C)=O)C[C@H](O)[C@@]4(C)[C@H]13)C(=O)O[C@]1(CCC2=O)C(=O)[C@]23C[C@@H]1C[C@H](OC(C)=O)[C@H]2[C@@]1(C)[C@H]([C@@H](O)C3)C(C)(C)[C@@H](OC(C)=O)C[C@@H]1O (relative stereo) |

| Structure (SMILES) | IC50 [µM] |
| --- | --- |
| N=C(N)NN [PIMAGEDINE] | 27.5 |

Reference: ChEMBL document CHEMBL1938271, “Dimeric ent-kaurane diterpenoids from Isodon excisus” (J Nat Prod, 2011)
